Measurements: article PMC7725003, “Systematically Studying the Optimal Amino Acid Distribution Patterns of the Amphiphilic Structure by Using the Ultrashort Amphiphiles” (Frontiers in Microbiology, 2020)
Where no end group is shown, it is not given here.

How the values were obtained:
E. coli 25922 = type: cell-based, Escherichia coli; details: 25922, 24 h
Method in brief: (§1)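 Bacteria were grown to mid-log phase and diluted in MHB to 0.5–1 × 10^6 CFU mL^–1. Serial peptide dilutions in 0.2% BSA were added at equal volume and plates incubated 24 h at 37°C. Growth inhibition of 95% at 492 nm defined the MIC.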

E. coli O78 = type: cell-based, Escherichia coli; details: O78, 24 h
Method in brief: as §1

E. coli UB1005 = type: cell-based, Escherichia coli; details: UB1005, 24 h
Method in brief: as §1

S. typhimurium 14028 = type: cell-based, Salmonella typhimurium; details: 14028, 24 h
Method in brief: as §1

S. typhimurium 7731 = type: cell-based, Salmonella typhimurium; details: 7731, 24 h
Method in brief: as §1

S. pullorum 7913 = type: cell-based, Salmonella pullorum; details: 7913, 24 h
Method in brief: as §1

P. aeruginosa 27853 = type: cell-based, Pseudomonas aeruginosa; details: 27853, 24 h
Method in brief: as §1

E. coli K88 = details: for MIC: MHB, 24 h 37°C, 95% growth inhibition; for MBC: value in brackets, >99.9% of cells killed
Method in brief: (§2)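 Peptides were serially diluted in 0.2% BSA and added to mid-logarithmic cells diluted in MHB to 0.5–1 × 10^6 CFU mL^–1. Assays followed an adapted NCCLS protocol.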

E. coli K99 = details: for MIC: MHB, 24 h 37°C, 95% growth inhibition; for MBC: value in brackets, >99.9% of cells killed
Method in brief: as §2

Gram-negative bacteria [1] = details: for GM MIC: geometric mean of MICs, 9 Gram-negative strains (Table 2); for TI, Gram-negative bacteria: therapeutic index TI = MHC/GM MIC
Method in brief: (§3)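 Broth microdilution adapted from NCCLS: mid-log bacteria diluted in MHB to 0.5–1 × 10^6 CFU mL^–1, mixed with peptides serially diluted in 0.2% BSA. After 24 h at 37°C, MIC taken as the lowest concentration inhibiting 95% of growth by absorbance at 492 nm. Assays repeated more than 3 times.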

Gram-positive bacteria [2] = details: for GM MIC: geometric mean of MICs, 7 Gram-positive strains (Table 2); for TI, Gram-positive bacteria: therapeutic index TI = MHC/GM MIC
Method in brief: as §3

S. aureus 25923 = type: cell-based, Staphylococcus aureus; details: 25923, 24 h
Method in brief: as §1

S. aureus 29213 [3] = type: cell-based, Staphylococcus aureus; details: 29213, 24 h
Method in brief: as §1

S. epidermidis 12228 = type: cell-based, Staphylococcus epidermidis; details: 12228, 24 h
Method in brief: as §1

MRSA 43300 = type: cell-based, methicillin-resistant S. aureus; details: 43300, 24 h
Method in brief: as §1

B. subtilis 63501 = type: cell-based, Bacillus subtilis; details: 63501, 24 h
Method in brief: as §1

E. faecalis 29212 = type: cell-based, Enterococcus faecalis; details: 29212, 24 h
Method in brief: as §1

[4] = tested on: Listeria monocytogenes CGMCC 1.1075; type: cell-based; details: CGMCC 1.1075, 24 h
Method in brief: as §1

[5] = tested on: all of the tested bacterial strains; test: Geometric mean of MICs, all tested bacterial strains; type: cell-based; details: for GM, All: geometric mean of MICs across all tested strains; for TI, All: therapeutic index TI = MHC/GM MIC
Method in brief: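 Mid-log bacteria at 0.5–1 × 10^6 CFU mL^–1 in MHB with peptides serially diluted in 0.2% BSA, 24 h at 37°C. MIC is the lowest concentration giving 95% growth inhibition by A492. MBC is the lowest giving >99.9% kill on agar subculture, and the GM is taken over all strains.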

E. coli ATCC 25922 = test: Salt sensitivity assay (MIC); type: cell-based, Escherichia coli; details: for MIC, FeCl3: 4 μM FeCl3; for MIC, NH4Cl: 6 μM NH4Cl; for MIC, ZnCl2: 8 μM ZnCl2; for MIC, MgCl2: 1 mM MgCl2; for MIC, CaCl2: 2 mM CaCl2; for MIC, KCl: 4.5 mM KCl; for MIC, NaCl: 150 mM NaCl; for MIC, Control: no added salt, three independent assays
Method in brief: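 The salt sensitivity of peptides was tested against E. coli ATCC 25922 using a modified NCCLS broth microdilution MIC method. Mid-log bacteria were diluted in MHB to 0.5–1 × 10^6 CFU mL^–1 and mixed in equal volumes with peptides serially diluted in 0.2% BSA in 96-well plates. Physiological salt was added where specified, and the assay was done three independent times.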

S. aureus 29213 [6] = test: Salt sensitivity assay (MIC); type: cell-based, Staphylococcus aureus; details: for MIC, FeCl3: 4 μM FeCl3; for MIC, NH4Cl: 6 μM NH4Cl; for MIC, ZnCl2: 8 μM ZnCl2; for MIC, MgCl2: 1 mM MgCl2; for MIC, CaCl2: 2 mM CaCl2; for MIC, KCl: 4.5 mM KCl; for MIC, NaCl: 150 mM NaCl; for MIC, Control: no added salt, three independent assays
Method in brief: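 MICs determined by broth microdilution in MHB with 0.5–1 × 10^6 CFU/mL, peptides serially diluted in 0.2% BSA, 24 h at 37°C. Medium supplemented with physiological salts (150 mM NaCl, 4.5 mM KCl, 6 μM NH4Cl, 8 μM ZnCl2, 1 mM MgCl2, 2mM CaCl2, 4 μM FeCl3). MIC = lowest concentration inhibiting 95% growth (A492).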

Gram-negative bacteria [7] = details: geometric mean of MBCs, 9 Gram-negative strains (Table 2)
Gram-positive bacteria [8] = details: geometric mean of MBCs, 7 Gram-positive strains (Table 2)

LRRRLLLLR-NH2 [L6]
MIC (E. coli 25922): > 64 µM | MBC (E. coli O78): 128 µM | MIC (E. coli O78): 64 µM | MIC (E. coli UB1005): >64 µM | MIC (S. typhimurium 14028): > 64 µM | MIC (S. typhimurium 7731): > 64 µM | MIC (S. pullorum 7913): >64 µM | MIC (P. aeruginosa 27853): > 64 µM | MIC (E. coli K88): 64 µM | MBC (E. coli K88): 128 µM | MIC (E. coli K99): 64 µM | MBC (E. coli K99): 128 µM | GM MIC (Gram-negative bacteria [1]): 101.59 µM | TI, Gram-negative bacteria (Gram-negative bacteria [1]): 2.52 | GM MIC (Gram-positive bacteria [2]): 105.00 µM | TI, Gram-positive bacteria (Gram-positive bacteria [2]): 2.44 | MIC (S. aureus 25923): > 64 µM | MIC (S. aureus 29213 [3]): >64 µM | MIC (S. epidermidis 12228): > 64 µM | MIC (MRSA 43300): >64 µM | MBC (B. subtilis 63501): 64 µM | MIC (B. subtilis 63501): 32 µM | MIC (E. faecalis 29212): > 64 µM | MIC [4]: >64 µM | GM, All [5]: 103.07 µM | TI, All [5]: 2.48 | MIC, FeCl3 (E. coli ATCC 25922): > 64 µM | MIC, NH4Cl (E. coli ATCC 25922): > 64 µM | MIC, ZnCl2 (E. coli ATCC 25922): > 64 µM | MIC, MgCl2 (E. coli ATCC 25922): > 64 µM | MIC, CaCl2 (E. coli ATCC 25922): > 64 µM | MIC, KCl (E. coli ATCC 25922): > 64 µM | MIC, NaCl (E. coli ATCC 25922): > 64 µM | MIC, Control (E. coli ATCC 25922): > 64 µM | MIC, FeCl3 (S. aureus 29213 [6]): > 64 µM | MIC, NH4Cl (S. aureus 29213 [6]): > 64 µM | MIC, ZnCl2 (S. aureus 29213 [6]): > 64 µM | MIC, MgCl2 (S. aureus 29213 [6]): > 64 µM | MIC, CaCl2 (S. aureus 29213 [6]): > 64 µM | MIC, KCl (S. aureus 29213 [6]): > 64 µM | MIC, NaCl (S. aureus 29213 [6]): > 64 µM | MIC, Control (S. aureus 29213 [6]): > 64 µM | GM MBC (Gram-negative bacteria [7]): 128.00 µM | GM MBC (Gram-positive bacteria [8]): 115.93 µM

RLLLLRRLR-NH2 [L10]
MBC (E. coli 25922): 64 µM | MIC (E. coli 25922): 32 µM | MBC (E. coli O78): 32 µM | MIC (E. coli O78): 16 µM | MIC (E. coli UB1005): > 64 µM | MIC (S. typhimurium 14028): >64 µM | MBC (S. typhimurium 7731): 128 µM | MIC (S. typhimurium 7731): 64 µM | MIC (S. pullorum 7913): > 64 µM | MBC (P. aeruginosa 27853): 64 µM | MIC (P. aeruginosa 27853): 32 µM | MIC (E. coli K88): 32 µM | MBC (E. coli K88): 64 µM | MIC (E. coli K99): 4 µM | MBC (E. coli K99): 8 µM | GM MIC (Gram-negative bacteria [1]): 40.32 µM | TI, Gram-negative bacteria (Gram-negative bacteria [1]): 6.35 | GM MIC (Gram-positive bacteria [2]): 70.66 µM | TI, Gram-positive bacteria (Gram-positive bacteria [2]): 3.62 | MIC (S. aureus 25923): > 64 µM | MIC (S. aureus 29213 [3]): >64 µM | MIC (S. epidermidis 12228): > 64 µM | MIC (MRSA 43300): >64 µM | MBC (B. subtilis 63501): 32 µM | MIC (B. subtilis 63501): 16 µM | MIC (E. faecalis 29212): > 64 µM | MBC [4]: 32 µM | MIC [4]: 16 µM | GM, All [5]: 51.54 µM | TI, All [5]: 4.97 | MIC, FeCl3 (E. coli ATCC 25922): 32 µM | MIC, NH4Cl (E. coli ATCC 25922): 32 µM | MIC, ZnCl2 (E. coli ATCC 25922): 32 µM | MIC, MgCl2 (E. coli ATCC 25922): 32 µM | MIC, CaCl2 (E. coli ATCC 25922): 32 µM | MIC, KCl (E. coli ATCC 25922): 32 µM | MIC, NaCl (E. coli ATCC 25922): 32 µM | MIC, Control (E. coli ATCC 25922): 32 µM | MIC, FeCl3 (S. aureus 29213 [6]): > 64 µM | MIC, NH4Cl (S. aureus 29213 [6]): > 64 µM | MIC, ZnCl2 (S. aureus 29213 [6]): > 64 µM | MIC, MgCl2 (S. aureus 29213 [6]): > 64 µM | MIC, CaCl2 (S. aureus 29213 [6]): > 64 µM | MIC, KCl (S. aureus 29213 [6]): > 64 µM | MIC, NaCl (S. aureus 29213 [6]): > 64 µM | MIC, Control (S. aureus 29213 [6]): > 64 µM | GM MBC (Gram-negative bacteria [7]): 64.00 µM | GM MBC (Gram-positive bacteria [8]): 86.14 µM
